This note sets out measurements from patent US20220041606A1, “POSITIVE ALLOSTERIC MODULATORS OF THE MUSCARINIC ACETYLCHOLINE RECEPTOR M1” (Vanderbilt University, priority 2020, published 2022).

Each structure is given as a SMILES string.

What is called EC50 is the concentration at which the effect is half-maximal. Broadly, the Emax is the maximal effect, on the per cent scale that the assay sets.

For assay [1], the target named is T1, human mAChR M1 (Homo sapiens, UniProt P11229).
T1 construct: host or cells: CHO-K1 cells (ATCC), stably transfected using Lipofectamine2000
T1 sequence (P11229 1-460): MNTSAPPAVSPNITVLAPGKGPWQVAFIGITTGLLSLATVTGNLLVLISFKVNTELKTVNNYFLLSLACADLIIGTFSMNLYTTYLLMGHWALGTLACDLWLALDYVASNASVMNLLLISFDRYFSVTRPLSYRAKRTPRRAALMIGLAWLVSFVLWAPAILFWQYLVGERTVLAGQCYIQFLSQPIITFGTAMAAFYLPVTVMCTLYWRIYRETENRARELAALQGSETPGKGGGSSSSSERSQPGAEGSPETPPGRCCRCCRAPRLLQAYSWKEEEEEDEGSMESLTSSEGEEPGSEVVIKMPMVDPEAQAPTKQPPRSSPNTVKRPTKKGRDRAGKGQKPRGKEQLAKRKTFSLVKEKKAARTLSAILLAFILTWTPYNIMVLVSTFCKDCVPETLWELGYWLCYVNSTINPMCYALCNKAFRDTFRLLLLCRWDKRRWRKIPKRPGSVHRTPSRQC
Nature of the assay: mAChR M1 cell-based functional assay (calcium mobilization), agonist activity upon compound addition. The following applies: CHO-K1 cells expressing hM1; for EC50: compound alone, before acetylcholine addition; for Emax: relative to the maximum for acetylcholine. From the text: (§1) Chinese hamster ovary (CHO-K1) cells stably expressing rat (r)M1 were purchased from the American Type Culture Collection and cultured according to their indicated protocol. CHO cells stably expressing human (h)M2, hM3, and hM5 were described previously (Levey, et al., 1991); hM1 and hM4 cDNAs were purchased from Missouri S&T cDNA Resource; rM4 cDNA was provided by T. L. Bonner (National Institutes of Health, Bethesda, MID). rM2 and rM3 were cloned from a rat brain cDNA library and sequence verified. hM1, rM2, rM3, hM4, and rM4 cDNAs were used to stably transfect CHO-K1 cells purchased from the American Type Culture Collection using Lipofectamine2000. To make stable rM2, hM2, rM3, hM4, and rM4 cell lines for use in calcium mobilization assays, these cells also were stably transfected with a chimeric G-protein (Gqi5) (provided by B. R. Conklin, University of California, San Francisco) using Lipofectamine 2000. rM1, hM1, rM3, hM3, rM5, and hM5 cells were grown in Ham's F-12 medium containing 10% heat-inactivated fetal bovine serum (FBS), 20 mM HEPES, and 50 μg/mL G418 sulfate. rM2-Gq15, hM2-Gqi5, and hM4-Gqi5 cells were grown in the same medium also containing 500 μg/mL Hygromycin B. Stable rM4-Gqi5 cells were grown in DMEM containing 10% heat-inactivated FBS, 20 mM HEPES, 400 μg/mL G418 sulfate, and 500 μg/mL Hygromycin B.
(§2) For high throughput measurement of agonist-evoked increases in intracellular calcium, CHO-K1 cells stably expressing muscarinic receptors were plated in growth medium lacking G418 and hygromycin at 15,000 cells/20 μL/well in Greiner 384-well black-walled, tissue culture (TC)-treated, clear-bottom plates (VWR). Cells were incubated overnight at 37° C. and 5% CO2. The next day, cells were washed using an ELX 405 (BioTek) with four washes (80 μL) of assay buffer then aspirated to 20 μL. Next, 20 μL of 16 μM Fluo-4/acetoxymethyl ester (Invitrogen, Carlsbad, Calif.) prepared as a 2.3 mM stock in DMSO and mixed in a 1:1 ratio with 10% (w/v) Pluronic F-127 and diluted in assay buffer was added to the wells and the cell plates were incubated for 50 min at 37° C. and 5% CO2. Dye was removed by washing with the ELX 405 (four 80 μL washes of assay buffer) then aspirated to 20 μL. Compound master plates were formatted in an 11 point CRC format (1:3 dilutions) in 100% DMSO with a starting concentration of 10 mM using the BRAVO liquid handler (Agilent). Test compound CRCs were then transferred to daughter plates (240 nL) using the Echo acoustic plate reformatter (Labcyte, Sunnyvale, Calif.) and then diluted into assay buffer (40 μL) to a 2× stock using a Thermo Fisher Combi (Thermo Fisher Scientific, Waltham, Mass.).
(§3) Calcium flux was measured using the Functional Drug Screening System (FDSS) 6000 (Hamamatsu Corporation, Tokyo, Japan) as an increase in the fluorescent static ratio. Compounds were applied to cells (20 μL, 2×) using the automated system of the FDSS 6000 at 4 s into the 300 s protocol and the data were collected at 1 Hz. At 144 s into the 300s protocol, 10 μL of an EC20 concentration of the muscarinic receptor agonist acetylcholine was added (5×), followed by the addition of 12 μL an EC80 concentration of acetylcholine at the 230 s time point (5×). Agonist activity was analyzed as a concentration-dependent increase in calcium mobilization upon compound addition. Emax values for agonist activity are expressed relative to the maximum for acetylcholine. Positive allosteric modulator activity was analyzed as a concentration-dependent increase in the EC20 acetylcholine response. Antagonist activity was analyzed as a concentration-dependent decrease in the EC80 acetylcholine response. Concentration-response curves were generated using a four-parameter logistical equation in XLfit curve fitting software (IDBS, Bridgewater, N.J.) for Excel (Microsoft, Redmond, Wash.) or Prism (GraphPad Software, Inc., San Diego, Calif.). […]
In general terms: A change in cytosolic calcium serves as a functional read-out for many receptors and channels.

The target in assay [2] is T1, human mAChR M1. Nature of the assay: mAChR M1 cell-based functional assay (calcium mobilization), PAM activity: increase in the EC20 acetylcholine response. The settings on record: CHO-K1 cells expressing hM1; potentiation of EC20 acetylcholine response.
Description: as §1, §2, §3

For the compound `Cn1nccc1-c1cc(F)c(Cn2cc(C(=O)N[C@H]3CCCC[C@@H]3O)c3ncccc3c2=O)c(F)c1` [Compound A48, 6-(2,6-difluoro-4-(1-methyl-1H-pyrazol-5-yl)benzyl)-N-((1S,2S)-2-hydroxycyclohexyl)-5-oxo-5,6-dihydro-1,6-naphthyridine-8-carboxamide], at human mAChR M1 [1], the EC50 was over 10000 nM and the Emax is under 5%. Also, on human mAChR M1 [2], the EC50 was found to be 660 nM and the Emax was 38%.
For `Cn1cc(-c2ccc(Cn3cc(C(=O)N[C@H]4CCOC[C@@H]4O)c4ncncc4c3=O)c(F)c2)cn1` [Compound A90, 6-(2-fluoro-4-(1-methyl-1H-pyrazol-4-yl)benzyl)-N-((3R,4S)-3-hydroxytetrahydro-2H-pyran-4-yl)-5-oxo-5,6-dihydropyrido[4,3-d]pyrimidine-8-carboxamide], in that order: over 10000 nM, under 5%, at least 10000 nM and 47%.
For `CC(C)[C@@H](CO)NC(=O)c1cn(Cc2ccc(-c3cnn(C)c3)cc2F)c(=O)c2nccnc12` [Compound A82, (S)-6-(2-fluoro-4-(1-methyl-1H-pyrazol-4-yl)benzyl)-N-(1-hydroxy-3-methylbutan-2-yl)-5-oxo-5,6-dihydropyrido[3,4-b]pyrazine-8-carboxamide], in that order: over 10000 nM, under 5%, at least 10000 nM and 26%.
As to `Cn1cc2c(-c3cc(F)c(Cn4cc(C(=O)NCC5CCCO5)c5occc5c4=O)c(F)c3)cccc2n1` (centres unmarked) [Compound D25, 5-(2,6-difluoro-4-(2-methyl-2H-indazol-4-yl)benzyl)-4-oxo-N-((tetrahydrofuran-2-yl)methyl)-4,5-dihydrofuro[3,2-c]pyridine-7-carboxamide], the EC50 on human mAChR M1 [1] and on human mAChR M1 [2] was over 10000 nM throughout. Further, the Emax at human mAChR M1 [1] was under 5%; at human mAChR M1 [2] it was 53%.
With `Cn1cc2c(-c3cc(F)c(Cn4cc(C(=O)N[C@H]5CCOC[C@@H]5O)c5nccn5c4=O)c(F)c3)cccc2n1` [Compound B18, 6-(2,6-difluoro-4-(2-methyl-2H-indazol-4-yl)benzyl)-N-((3R,4S)-3-hydroxytetrahydro-2H-pyran-4-yl)-5-oxo-5,6-dihydroimidazo[1,2-c]pyrimidine-8-carboxamide], the values for the EC50 on human mAChR M1 [1] and on human mAChR M1 [2] were 5270 nM and 93 nM, respectively. Besides, the maximal response (Emax) is 24% on human mAChR M1 [1] and 84% at human mAChR M1 [2].
Regarding `Cc1cc(-c2cc(F)c(Cn3cc(C(=O)N[C@H]4CCOC[C@@H]4O)c4ncccc4c3=O)c(F)c2)ccn1` [Compound A36, 6-(2,6-difluoro-4-(2-methylpyridin-4-yl)benzyl)-N-((3R,4S)-3-hydroxytetrahydro-2H-pyran-4-yl)-5-oxo-5,6-dihydro-1,6-naphthyridine-8-carboxamide], at human mAChR M1 [1], the EC50 worked out at 1770 nM and the Emax was 13%. For the same compound, at human mAChR M1 [2], the 50% effective concentration (EC50) is 610 nM and the Emax stood at 65%.
For `Cn1cc2c(-c3cc(F)c(Cn4cc(C(=O)N[C@H]5CCCC[C@@H]5O)c5nccn5c4=O)c(F)c3)cccc2n1` [Compound B20, 6-(2,6-difluoro-4-(2-methyl-2H-indazol-4-yl)benzyl)-N-((1S,2S)-2-hydroxycyclohexyl)-5-oxo-5,6-dihydroimidazo[1,2-c]pyrimidine-8-carboxamide], in that order: 2790 nM, 63%, 240 nM and 51%.
For `Cn1cc2c(-c3cc(F)c(Cn4cc(C(=O)N[C@H]5CCCC[C@@H]5O)c5ncccc5c4=O)c(F)c3)cccc2n1` [Compound A22, 6-(2,6-difluoro-4-(2-methyl-2H-indazol-4-yl)benzyl)-N-((1S,2S)-2-hydroxycyclohexyl)-5-oxo-5,6-dihydro-1,6-naphthyridine-8-carboxamide], in that order: over 10000 nM, under 5%, 52 nM and 67%.
